Test results from patent publication US9302967B2, “Substituted cathechols as inhibitors of IL-4 and IL-5 for the treatment of bronchial asthma” (Council of Scientific & Industrial Research, priority 2011, dated 2016).
Read-outs that look alike come from different tables or passages of the source.

Legend:
COX-1 = COX-1 (Homo sapiens, UniProt P23219); settings: cited from earlier work
[1] = tested on: oral KB carcinoma cell line; settings: cited from earlier work
[2] = 14 d acute oral toxicity: observations, body weight, organ weight, necropsy; assay type: in vivo, mice
Experimental: 14 d acute oral toxicity of compound 1 of formula I was performed. Three doses were selected: 47, 23, 12 and 0 mg/kg bw (Vehicle control) of compound 1 of formula I was administered by single oral gavage using blunt ended steel canula.

[3] = tested on: OVA sensitized, OVA challenged mice; experiment: Airway hyperresponsiveness to methacholine (whole-body plethysmography), OVA mouse model of asthma; assay type: in vivo, BALB/c mice; settings: for AHR to Mch / lung function compared with dexamethasone: 10 mg/kg orally twice a day, DEX 0.75 mg/kg once a day; for MCh PC200 (AHR to methacholine): 0.05, 0.1, 5 and 10 mg/kg orally twice per day
Experimental: BALB/c mice (6-8 wks old, 18-22 grams) were obtained from IICB Kolkata and VPCI, Delhi. Ethical clearance has been obtained from Institutional Ethical Committee. Mice were acclimatized for at least one week under the laboratory conditions (25±2° C., 60% humidity) before starting the experiments. After one week, baseline Penh (enhanced pause) was measured in Buxco unrestrained single chamber plethysmography (WBP, Buxco, Troy, N.Y.).
Mice were sensitized with 0.2 ml PBS containing 50 μg ovalbumin (OVA) (Sigma, USA) and 4 mg aluminum hydroxide in saline intraperitonially (i.p.) on days 0, 7 and 14 as shown in FIG. 1. Sham group mice were sensitized with only alum dissolved in PBS. From day 18 to 27, mice were exposed to aerosol of OVA (3%) inhalation 25 minutes daily in a Plexiglas chamber (20×20×10 cm^3). The aerosol was generated by a nebulizer (OMRON CX model) with an airflow rate of 9 L/minute. Sham group mice were challenged with PBS alone.
Compound 1 of formula I was dissolved in 50% ethanol. So 50% ethanol was used as a vehicle. Group I was alum sensitized, saline challenged and treated with vehicle (SHAM/SAL/VEH), group II was OVA sensitized, OVA challenged and treated with 50% ethanol as vehicle (OVA/OVA/VEH), group III, IV, V, VI were OVA sensitized, OVA challenged and treated with 0.05, 0.1, 5 and 10 mg/kg compound 1 of formula I. Drug was given in the volume of 10 μl orally twice per day. Confirmatory experiments were done with two concentrations of compound 1 of formula I (5 and 10 mg/kg twice a day), and these findings were compared with parallel group of mice which were OVA-sensitized, -OVA challenged and treated orally once a day with 0.75 mg/kg Dexamethasone (OVA/OVA/DEX).
Airway responsiveness was measured by barometric plethysmography using whole-body plethysmography (WBP; Buxco, Troy, N.Y.) 12 hours after last saline or ovalbumin challenge. At the time of measurement the animals were awake and breathing spontaneously. Enhanced pause (Penh) to methacholine as measured using barometric plethysmography is a valid indicator of bronchoconstriction in mice and can be used to measure AHR (Am J Respir Crit Care Med 1997, 156, 766-775). Baseline Penh was taken initially, and then PBS followed by increasing concentrations (4-48 mg/ml) of methacholine was nebulized through an inlet of the main chamber for 3 min. Readings were taken and averaged for 5 minutes from the starting time of nebulisation. Airway responsiveness to MCh was evaluated by the concentration of MCh required to increase the Penh to twice the baseline value (MCh PC200).

[4] = mouse, in vivo
Experimental: (§1) Earlier, LD50 of ICB 14 C6 was derived from in vitro cytotoxicity assay by NRUmethod in 3T3 cells. […] For 90d sub-chronic toxicity study the highest dose selected was one-fourth of the limit dose. Four different doses of ICB14 C6 (47, 23, 12 and 0 [vehicle] mg/kg body weight) were prepared in ground nut oil daily for 5 days a week for 90d.
Compound 1 of formula I was administered by oral gavage in water using blunt ended steel canula.
On each working day, all mice were inspected and observations recorded. All the mice were weighed weekly.
From the day of administering the drug, 30 min cage side observation of the animals were performed every day (5 days a week) till the day of sacrifice. No signs and symptoms of restlessness, perinasal wetness and rapid rate of respiration were observed post administration. […] On the 12th week we found the mouse in a shrunken state as it was kept in the deep freezer.

[5] = 90 d sub-chronic oral toxicity: immunotoxicity; assay type: in vivo
Experimental: Immunotoxicity in mice was performed in accordance to EPA guideline (1998). […] Humoral immunity was measured in terms of HA titer and plaque forming cell assay. […] Cell mediated immunity was measured in terms of % increase in paw volume in mice sensitized with SRBC.
as §1

[6] = listed as compound of formula I

COX-1, sequence (P23219 24-599): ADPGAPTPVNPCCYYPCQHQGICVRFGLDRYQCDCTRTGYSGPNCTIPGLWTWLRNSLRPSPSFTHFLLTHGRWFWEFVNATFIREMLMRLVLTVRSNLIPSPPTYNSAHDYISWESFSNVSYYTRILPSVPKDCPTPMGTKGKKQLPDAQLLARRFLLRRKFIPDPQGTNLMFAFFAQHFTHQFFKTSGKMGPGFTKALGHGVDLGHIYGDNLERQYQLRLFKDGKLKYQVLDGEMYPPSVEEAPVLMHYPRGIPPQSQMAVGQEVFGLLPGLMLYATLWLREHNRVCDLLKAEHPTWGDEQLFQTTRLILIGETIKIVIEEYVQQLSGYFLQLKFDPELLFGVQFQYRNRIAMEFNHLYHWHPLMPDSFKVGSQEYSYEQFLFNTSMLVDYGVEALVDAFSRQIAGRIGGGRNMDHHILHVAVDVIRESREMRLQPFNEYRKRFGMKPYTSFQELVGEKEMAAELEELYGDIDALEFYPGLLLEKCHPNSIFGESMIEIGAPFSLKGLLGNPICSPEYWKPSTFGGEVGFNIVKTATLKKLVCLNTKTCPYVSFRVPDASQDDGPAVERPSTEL

For `C=CCc1ccc(O)c(O)c1` [Compound 1, 4-allyl-benzene-1,2-diol], the COX-1 inhibition (COX-1) is listed as “potent COX-1/COX-2 inhibitor”, the “cell cycle arrest and apoptosis” value [1] is listed as “induce cell cycle arrest and apoptosis” and the “acute oral (level) established from body weight, organ weight, necropsy, immunotoxicity, hematology, clinical chemistry, cage side observation” value ([2]; mice) is listed as 23 mg/kg. For the same molecule, the “necropsy findings in vital organs” value ([2]; mouse, in vivo) was “no gross or microscopic lesion”, the “clinical signs on day of administration” value ([2]; mouse, in vivo, po) was “transient symptoms of restlessness and rapid rate of respiration that persisted for 30 minutes post administration” and the “feed and water consumption” value ([2]; mouse, in vivo, po) was “comparable to vehicle control group”. The morbidity and/or mortality ([2]; single oral 47, 23 and 12 mg/kg bw) was “did not result in any morbidity and/or mortality”, the “AHR to Mch / lung function compared with dexamethasone” value [3] was “able to improve lung function almost similar to the level of dexamethasone” and the “AHR to Mch / lung function compared with dexamethasone” value [3, 6] was “significantly reduced the AHR to Mch as effective as DEX”. The “MCh PC200 (AHR to methacholine)” value [3] was “increased in a dose dependent manner”, the “MCh PC200 (AHR to methacholine)” value [3, 6] was “effective at higher concentrations” and the cage side observation [4] was “All the animals appeared normal”. The “feed and water consumption” value [4] was “comparable to sham controls”, the “necropsy findings in vital organs” value [4] was “no gross or microscopic lesion” and the mortality ([4]; 47 mg/kg, 90 d) was “on the 11th weekend it died”. For the same molecule, the “Bone marrow cell viability %” value ([5]; 90 d, 12 mg/kg bw) was 97.26 ± 0.88%, the “Lymph node lymphocyte viability % (pooled)” value ([5]; 90 d, 12 mg/kg bw) was 97.40 ± 0.61% and the Splenocyte viability % ([5]; 90 d, 12 mg/kg bw) was 96.79 ± 0.36%. The “Bone marrow cell viability %” value ([5]; 90 d, 23 mg/kg bw) was 96.80 ± 1.15%, the “Lymph node lymphocyte viability % (pooled)” value ([5]; 90 d, 23 mg/kg bw) was 98.28 ± 0.80% and the Splenocyte viability % ([5]; 90 d, 23 mg/kg bw) was 96.56 ± 0.80%. The “Bone marrow cell viability %” value ([5]; 90 d, 47 mg/kg bw) was 95.45 ± 0.31%, the “Lymph node lymphocyte viability % (pooled)” value ([5]; 90 d, 47 mg/kg bw) was 98.17 ± 0.05% and the Splenocyte viability % ([5]; 90 d, 47 mg/kg bw) was 96.45 ± 0.62%. For the same molecule, the “Lymph node lymphocyte, splenocytes and bone marrow cell viabilities” value ([5]; 90 d, all the groups) was greater than 94%, the “B cell function (PFC)” value ([5]; mouse, in vivo) was “Dose dependant decrease in B cell function” and the “Total IgA” value ([5]; mouse, in vivo, 12 mg/kg) was 264.25 ± 28.6 ng/mL. The “Total IgE” value ([5]; mouse, in vivo, 12 mg/kg) was 0.69 ± 0.115, the “Total IgG” value ([5]; mouse, in vivo, 12 mg/kg) was 12.98 ± 0.53 mg/mL and the “Total IgM” value ([5]; mouse, in vivo, 12 mg/kg) was 6.65 ± 0.13. For the same molecule, the “DTH response (% increase in paw volume)” value ([5]; mouse, in vivo, 12 mg/kg, 90 d) was 12.12 ± 2.96%, the “HA tire (reciprocal of the last dilution showing positive reaction)” value (from here on “HA tire”) ([5]; mouse, in vivo, 12 mg/kg, 90 d) was 1280 and the PFC ([5]; mouse, in vivo, 12 mg/kg, 90 d) was 5533 ± 437 per 10^6lymphocytes. The “Total IgA” value ([5]; mouse, in vivo, 23 mg/kg) was 207.25 ± 9.7 ng/mL, the “Total IgE” value ([5]; mouse, in vivo, 23 mg/kg) was 0.74 ± 0.23 and the “Total IgG” value ([5]; mouse, in vivo, 23 mg/kg) was 15.21 ± 0.31 mg/mL. For the same molecule, the “Total IgM” value ([5]; mouse, in vivo, 23 mg/kg) was 0.57 ± 0.17, the “DTH response (% increase in paw volume)” value ([5]; mouse, in vivo, 23 mg/kg, 90 d) was 11.55 ± 3.77% and the “HA tire” value ([5]; mouse, in vivo, 23 mg/kg, 90 d) was 640. For the same molecule, the PFC ([5]; mouse, in vivo, 23 mg/kg, 90 d) was 4911 ± 873 per 10^6lymphocytes, the “Total IgA” value ([5]; mouse, in vivo, 47 mg/kg) was 167 ± 2.12 ng/mL and the “Total IgE” value ([5]; mouse, in vivo, 47 mg/kg) was 0.65 ± 0.09. For the same molecule, the “Total IgG” value ([5]; mouse, in vivo, 47 mg/kg) was 6.11 ± 0.25 mg/mL, the “Total IgM” value ([5]; mouse, in vivo, 47 mg/kg) was 1.02 ± 0.30 and the “DTH response (% increase in paw volume)” value ([5]; mouse, in vivo, 47 mg/kg, 90 d) was 11.28 ± 3.69%. The “HA tire” value ([5]; mouse, in vivo, 47 mg/kg, 90 d) was 320 and the PFC ([5]; mouse, in vivo, 47 mg/kg, 90 d) was 1849 ± 780 per 10^6lymphocytes.
